Test results taken from ChEMBL document CHEMBL3352561, “Synthesis of natural and non-natural curcuminoids and their neuroprotective activity against glutamate-induced oxidative stress in HT-22 cells” (J Nat Prod, 2014).
Calls of active or inactive are those of the source. The calls are words filed in the database; no cut-off is given here.

Columns and labels:
HT-22 [1] = test: (§1) Cytotoxicity against mouse HT22 cells assessed as cell viability at 1 to 25 uM after 24 hrs by MTT assay relative to control; format: cell-based; conditions: ht-22, 24 h, 25 µM
HT-22 [2] = test: Neuroprotective activity against glutamate-induced neuronal cell death in mouse HT22 cells assessed as increase in cell viability at 1 to 25 uM after 24 hrs by MTT assay relative to control; format: functional, cell-based
[3] = Cytotoxicity against mouse HT22 cells assessed as cell viability at 10 uM after 24 hrs by MTT assay relative to control; format: cell-based, HT-22; conditions: read-out: Activity
[4] = Cytotoxicity against mouse HT22 cells assessed as cell viability at 25 uM after 24 hrs by MTT assay relative to control; format: cell-based, HT-22; conditions: read-out: Activity
HT-22 [5] = test: Neuroprotective activity against glutamate-induced neuronal cell death in mouse HT22 cells assessed as increase in cell viability at 10 uM after 24 hrs by MTT assay relative to control; format: functional
HT-22 [6] = test: Neuroprotective activity against t-BuOOH-induced neuronal cell death in mouse HT22 cells assessed as increase in cell viability at 1 to 100 uM after 20 hrs by MTT assay relative to control; format: functional, cell-based
HT-22 [7] = test: Neuroprotective activity against glutamate-induced neuronal cell death in mouse HT22 cells assessed as increase in cell viability at 25 uM after 24 hrs by MTT assay relative to control; format: functional, cell-based
[8] = as §1; format: cell-based, HT-22; conditions: HT22 cells, read-out: Activity
HT-22 [9] = test: Neuroprotective activity against glutamate-induced neuronal cell death in mouse HT22 cells assessed as increase in cell viability after 24 hrs by MTT assay relative to control; format: functional, cell-based
[10] = Cytotoxicity against mouse HT22 cells assessed as reduction in cell viability at 25 uM after 24 hrs by MTT assay relative to control; format: cell-based, HT-22; conditions: read-out: INH
[11] = Cytotoxicity against mouse HT22 cells assessed as reduction in cell viability at 10 uM after 24 hrs by MTT assay relative to control; format: cell-based, HT-22; conditions: read-out: INH
HT-22 [12] = test: Neuroprotective activity against glutamate-induced neuronal cell death in mouse HT22 cells assessed as increase in cell viability at 5 uM after 24 hrs by MTT assay relative to control; format: functional
[13] = Cytotoxicity against mouse HT22 cells assessed as cell viability at 1 uM after 24 hrs by MTT assay relative to control; format: cell-based, HT-22; conditions: read-out: Activity
HT-22 [14] = test: Neuroprotective activity against glutamate-induced neuronal cell death in mouse HT22 cells assessed as increase in cell viability at 10 to 25 uM after 24 hrs by MTT assay relative to control; format: functional, cell-based

| Compound | Activity (HT-22 [2]) | viability at 24 h, 10 µM [3] | Activity (HT-22 [9]) | further results |
| --- | --- | --- | --- | --- |
| COc1cc(/C=C/C(O)=C/C(=O)/C=C/c2ccc(O)cc2)ccc1O [DEMETHOXYCURCUMIN] | inactive | – | – | Activity (HT-22 [1]): Toxic |
| O=C(/C=C/c1ccc(O)cc1)CC(=O)/C=C/c1ccc(O)cc1 [BISDEMETHOXYCURCUMIN] | – | – | – | Activity (HT-22 [1]): Toxic |
| COc1cc(CCCCC(O)CCc2ccc(O)cc2)ccc1O (centres undefined) | inactive | 74% | – | – |
| O=C(/C=C/c1ccc(O)cc1)CCCCc1ccc(O)cc1 | inactive | 43% | – | viability at 24 h, 25 µM [4]: 25% |
| O=C(/C=C/c1ccc(O)c(O)c1)CCCCc1ccc(O)c(O)c1 | – | – | – | Activity (HT-22 [5]): inactive; Activity (HT-22 [6]): Active; viability at 24 h, 25 µM [4]: 78%; Activity (HT-22 [7]): Active |
| Oc1ccc(CCCCC(O)CCc2ccc(O)cc2)cc1 (racemic) | inactive | 43% | – | viability at 24 h, 25 µM [4]: 25% |
| CC(=O)/C=C/c1ccc(O)cc1 | inactive | – | – | viability at 24 h, up to 25 µM [8]: 50% |
| COc1cc(CCCCC(=O)CCc2ccc(O)c(OC)c2)ccc1O | – | 70% | Dose-dependent effect | Activity (HT-22 [7]): Active |
| O=C(CCCCc1ccc(O)cc1)CCc1ccc(O)cc1 | – | 43% | – | viability at 24 h, 25 µM [4]: 25% |
| COc1cc(/C=C/C(=O)CC(=O)/C=C/c2ccc(O)c(OC)c2)ccc1O [CURCUMIN] | – | – | – | cytotoxicity at 24 h, 25 µM [10]: 36%; cytotoxicity at 24 h, 10 µM [11]: 18% |
| COc1cc(CCCCC(=O)CCc2ccc(O)cc2)ccc1O | inactive | 71% | – | – |
| COc1cc(CCCCC(O)CCc2ccc(O)c(OC)c2)ccc1O (centres undefined) | – | 73% | Dose-dependent effect | Activity (HT-22 [7]): Active |
| COc1cc(CCCCC(=O)/C=C/c2ccc(O)cc2)ccc1O | inactive | 67% | – | – |
| O=C(/C=C/c1ccc(O)c(O)c1)CC(=O)/C=C/c1ccc(O)c(O)c1 [DIDEMETHYLCURCUMIN] | – | – | – | Activity (HT-22 [1]): Toxic |
| COc1cc(CCC(O)CCCCc2ccc(O)cc2)ccc1O (centres undefined) | – | 75% | Dose-dependent effect | Activity (HT-22 [7]): Active |
| COc1cc(/C=C/C(=O)CCCCc2ccc(O)c(OC)c2)ccc1O | – | 66% | Dose-dependent effect | Activity (HT-22 [5]): 62%; Activity (HT-22 [12]): 47%; Activity (HT-22 [6]): inactive |
| COc1cc(CCC(=O)CCCCc2ccc(O)cc2)ccc1O | – | – | Dose-dependent effect | viability at 24 h, up to 25 µM [8]: 37%; Activity (HT-22 [7]): Active |
| COc1ccc(CCCCC(=O)CCc2ccc(OC)c(OC)c2)cc1OC | – | – | – | viability at 24 h, 25 µM [4]: 43%; viability at 24 h, 1 µM [13]: 75%; Activity (HT-22 [14]): inactive |
| COc1cc(/C=C/C(=O)CCCCc2ccc(O)cc2)ccc1O | – | 68% | Dose-dependent effect | – |
| COc1cc(/C=C/C(C)=O)ccc1O | inactive | – | – | – |
